Results taken from ChEMBL document CHEMBL1129203, “Structure-activity relationships in 3-oxo-1,4-benzodiazepine-2-acetic acid GPIIb/IIIa antagonists. The 2-benzazepine series” (Bioorg Med Chem Lett, 1996).

Experiments:
[1] = species: Homo sapiens; test: In vitro inhibition of platelet aggregation in human platelet-rich plasma induced by ADP; assay type: functional
[2] = molecular target: Integrin alpha-IIb/beta-3 (Homo sapiens, UniProt P05106+P08514); test: In vitro binding affinity against human alpha IIb beta-3 integrin; assay type: protein-complex assay
Integrin alpha-IIb/beta-3, sequence (P05106 27-788 limits assumed): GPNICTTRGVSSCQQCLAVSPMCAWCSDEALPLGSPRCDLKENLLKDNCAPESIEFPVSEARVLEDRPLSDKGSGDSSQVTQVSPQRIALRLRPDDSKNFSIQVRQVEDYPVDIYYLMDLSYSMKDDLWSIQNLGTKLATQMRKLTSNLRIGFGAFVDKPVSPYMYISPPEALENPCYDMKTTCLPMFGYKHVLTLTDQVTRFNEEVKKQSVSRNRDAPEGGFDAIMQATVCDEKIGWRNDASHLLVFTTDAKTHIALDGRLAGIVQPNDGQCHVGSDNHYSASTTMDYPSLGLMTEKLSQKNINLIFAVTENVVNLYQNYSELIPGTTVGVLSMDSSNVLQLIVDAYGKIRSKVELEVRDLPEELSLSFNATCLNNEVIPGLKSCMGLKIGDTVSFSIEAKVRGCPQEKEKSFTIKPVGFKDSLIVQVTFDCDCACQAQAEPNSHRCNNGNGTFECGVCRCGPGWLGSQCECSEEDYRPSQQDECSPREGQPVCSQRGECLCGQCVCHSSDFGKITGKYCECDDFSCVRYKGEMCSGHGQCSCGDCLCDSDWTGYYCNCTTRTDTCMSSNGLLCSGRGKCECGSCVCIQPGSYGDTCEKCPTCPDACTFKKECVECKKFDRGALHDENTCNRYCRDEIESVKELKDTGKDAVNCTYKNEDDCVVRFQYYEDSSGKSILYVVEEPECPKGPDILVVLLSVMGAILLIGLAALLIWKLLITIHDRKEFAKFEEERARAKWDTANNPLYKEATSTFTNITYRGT
Integrin alpha-IIb/beta-3, sequence (P08514 32-887 limits assumed): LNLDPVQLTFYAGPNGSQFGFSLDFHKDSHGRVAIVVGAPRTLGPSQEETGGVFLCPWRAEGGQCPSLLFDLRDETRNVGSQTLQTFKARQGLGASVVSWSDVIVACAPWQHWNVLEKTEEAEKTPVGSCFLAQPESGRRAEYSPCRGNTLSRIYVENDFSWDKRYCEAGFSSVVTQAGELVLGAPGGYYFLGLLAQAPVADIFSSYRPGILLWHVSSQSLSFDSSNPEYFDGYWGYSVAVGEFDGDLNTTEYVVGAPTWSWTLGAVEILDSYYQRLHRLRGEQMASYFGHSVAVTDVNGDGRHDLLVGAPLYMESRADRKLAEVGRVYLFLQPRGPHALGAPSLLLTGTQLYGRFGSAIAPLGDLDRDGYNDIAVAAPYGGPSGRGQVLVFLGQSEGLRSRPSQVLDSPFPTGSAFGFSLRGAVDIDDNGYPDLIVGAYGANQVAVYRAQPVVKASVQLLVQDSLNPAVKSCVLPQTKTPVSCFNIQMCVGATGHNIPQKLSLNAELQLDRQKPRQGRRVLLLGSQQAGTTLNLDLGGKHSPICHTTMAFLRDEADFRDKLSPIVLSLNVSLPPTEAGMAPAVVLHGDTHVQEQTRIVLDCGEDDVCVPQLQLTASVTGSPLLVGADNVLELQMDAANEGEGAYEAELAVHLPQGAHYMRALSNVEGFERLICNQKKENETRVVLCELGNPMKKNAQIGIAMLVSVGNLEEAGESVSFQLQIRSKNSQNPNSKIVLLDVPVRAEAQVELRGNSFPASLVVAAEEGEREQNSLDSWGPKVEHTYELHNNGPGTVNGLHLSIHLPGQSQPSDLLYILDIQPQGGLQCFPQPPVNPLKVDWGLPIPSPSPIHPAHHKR
Integrin alpha-IIb/beta-3, sequence (P08514 891-1039 limits assumed): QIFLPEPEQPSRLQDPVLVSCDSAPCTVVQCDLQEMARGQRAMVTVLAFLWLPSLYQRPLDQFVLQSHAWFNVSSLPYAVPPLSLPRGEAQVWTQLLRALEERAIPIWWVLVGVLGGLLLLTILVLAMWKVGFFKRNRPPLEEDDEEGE

SMILES	IC50 [1] [nM]	Ki [2] [nM]
CN(CCC1CCNCC1)C(=O)c1ccc2c(c1)CC(CC(=O)O)C(=O)N(C)C2 (configuration not stated)	33	1.5
CC(C)N1Cc2ccc(C(=O)N(C)CCC3CCNCC3)cc2CC(CC(=O)O)C1=O (configuration not stated)	37	2
CN(CCC1CCNCC1)C(=O)c1ccc2c(c1)CC(CC(=O)O)C(=O)N(C1CCCCC1)C2 (configuration not stated)	49	1.3
CN(CCC1CCNCC1)C(=O)c1ccc2c(c1)CC(CC(=O)O)C(=O)NC2 (configuration not stated)	71	3.2
CN(CCC1CCNCC1)C(=O)c1ccc2c(c1)CC(CCC(=O)O)C(=O)N(CCc1ccccc1)C2 (configuration not stated)	7790	650
CN(CCC1CCNCC1)C(=O)c1ccc2c(c1)CC(CC(=O)O)C(=O)N(Cc1ccccc1)C2 (configuration not stated)	36	1
CC(C)CCN1Cc2ccc(C(=O)N(C)CCC3CCNCC3)cc2CC(CC(=O)O)C1=O (configuration not stated)	32	1.5
CN(CCC1CCNCC1)C(=O)c1ccc2c(c1)CC(CC(=O)O)C(=O)N(CCc1ccc(F)cc1)C2 (configuration not stated)	27	1.7
CN(CCC1CCNCC1)C(=O)c1ccc2c(c1)CC(CC(=O)O)C(=O)N(CCC(C)(C)C)C2 (configuration not stated)	27	2
CCCCN1Cc2ccc(C(=O)N(C)CCC3CCNCC3)cc2CC(CC(=O)O)C1=O (configuration not stated)	31	1.5
CN(C(=O)c1ccc2c(c1)NC(CC(=O)O)C(=O)N(CCc1ccccc1)C2)c1ccc(C(=N)N)cc1 (configuration not stated)	28	

More lines, in order of falling IC50 [1], values ahead:

IC50 [1] [nM]	Ki [2] [nM]	SMILES
27	2	CN(CCC1CCNCC1)C(=O)c1ccc2c(c1)CC(CC(=O)O)C(=O)N(CCC1CCCCC1)C2 (configuration not stated)
18	2.5	CN(CCC1CCNCC1)C(=O)c1ccc2c(c1)CC(CC(=O)O)C(=O)N(CCc1cccs1)C2 (configuration not stated)
13	3	CN(CCC1CCNCC1)C(=O)c1ccc2c(c1)CC(CC(=O)O)C(=O)N(CCc1ccccc1)C2 (configuration not stated)
12	1.5	CN(C(=O)c1ccc2c(c1)CC(CC(=O)O)C(=O)N(CCc1ccccc1)C2)c1ccc(C(=N)N)cc1 (configuration not stated)
8		N=C(N)c1ccc(NC(=O)c2ccc3c(c2)NC(CC(=O)O)C(=O)N(CCc2ccccc2)C3)cc1 (configuration not stated)
8	2	CN(CCC1CCNCC1)C(=O)c1ccc2c(c1)CC(CC(=O)O)C(=O)N(CCCCCc1ccccc1)C2 (configuration not stated)
